This is an account of results in ChEMBL document CHEMBL1152286, “Pyrrospirones A and B, apoptosis inducers in HL-60 cells, from an endophytic fungus, Neonectria ramulariae Wollenw KS-246” (Bioorg Med Chem Lett, 2008).

As a reminder, the IC50 is the midpoint of a concentration-inhibition curve. Read a high IC50 as a need for much substance.

Active and inactive are the calls of the source. No cut-off for these calls is given here.

Format in all cases: functional, cell-based
For test [1], the system named is K562. In words: Cytotoxicity against human K562 cells by MTT assay.
For test [2], the system named is HL-60. Briefly: Cytotoxicity against human HL60 cells by MTT assay.
The test system of test [3] is LNCaP. In words: Cytotoxicity against human LNCAP cells by MTT assay. A general note: Tetrazolium dyes change colour on reduction, which living cells bring about.
Test [4] concerns HL-60. Briefly: Induction of apoptosis in human HL60 cells assessed as DNA fragmentation at 30 uM after 18 hrs by agarose-gel electrophoresis.

With `C=C[C@@H]1C=C(C)[C@H]2[C@@H]3[C@H](Oc4ccc(cc4)C[C@@]4(O)C=C(C(=O)N4)C(=O)[C@@H]13)[C@@H]1[C@@H](C)C[C@@H](C)C[C@]12C` [PYRROSPIRONE C], the half-maximal inhibitory concentration (IC50) was 0.45 µM in test [1], 0.12 µM in test [2] and 0.48 µM in test [3].

As for `CC1=C[C@H]2[C@@H]3C(=O)[C@]4(C[C@@H]2O)C[C@](O)(Cc2ccc(cc2)O[C@H]2[C@H]3[C@@H]1[C@]1(C)C[C@H](C)C[C@H](C)[C@@H]21)NC4=O` [PYRROSPIRONE B], the values for the half-inhibitory concentration (IC50) in test [1], in test [2] and in test [3] were 9.27 µM, 7.44 µM and 20.2 µM, respectively. In test [4], the outcome was Active.

As to `C=C[C@@H]1C=C(C)[C@H]2[C@@H]3[C@H](Oc4ccc(cc4)C[C@@]4(O)C[C@H](C(=O)N4)C(=O)[C@@H]13)[C@@H]1[C@@H](C)C[C@@H](C)C[C@]12C` [PYRROSPIRONE D], the IC50 came to 8.64 µM in test [1], 6.92 µM in test [2] and 11.7 µM in test [3].

As to `CC1=C[C@H]2[C@@H]3C(=O)[C@]4(C[C@H]2O)C[C@](O)(Cc2ccc(cc2)O[C@H]2[C@H]3[C@@H]1[C@]1(C)C[C@H](C)C[C@H](C)[C@@H]21)NC4=O` [PYRROSPIRONE A], the concentration for half-maximal inhibition (IC50) in test [1] was determined as 9.96 µM; in test [2] it was 14.9 µM; in test [3] it was 18 µM. Besides, the result in test [4] was Active.
